According to patent US8858917B2, “Methods for limiting spread of pulmonary infections” (priority 2002, dated 2014):
Values belong to the compound of their own block, whether it stands above or below them. Numbered stars: 1 amine (or outer) side, 2 acyl side, 3 side chain; on linkers, the order of the positions; unused ones are H or OH. Bridge positions count the residues as written; N and C are the ends. Square brackets hold non-standard residues; d marks the D form. Peptide text beside a SMILES is read from it. X1 = CC(C)CCCCCCCCC[C@H](CC(=O)[*:1])O[*:2]

Key:
HSV-1 and HSV-2 strains = settings: cultured cells; cited from earlier work
HIV-1 (strain NL4-3) = settings: pretreatment of virus; cited from earlier work
[1] = tested on: viruses susceptible to its action; settings: medium containing 5% fetal calf serum (FCS); cited from earlier work
NIH 3T3 fibroblasts = settings: 30% ethanol in 10% FBS DMEM for 10 seconds
[2] = Dispersion / precipitation in ethanol; format: physicochemical; settings: room temperature

SMILES: CCCCCCCCCCCCOS(=O)(=O)[O-].[Na+] [SLS, sodium lauryl sulfate]
inhibition of infectivities of various HSV-1 and HSV-2 strains (HSV-1 and HSV-2 strains): potent inhibitors | infectivity of HIV-1 to 1G5 cells after pretreatment (HIV-1 (strain NL4-3)): reduced its infectivity

SMILES: CC(C)CCCCCCCCC[C@@H]1CC(=O)N[C@@H](CCC(=O)O)C(=O)N[C@@H](CC(C)C)C(=O)N[C@H](CC(C)C)C(=O)N[C@@H](C(C)C)C(=O)N[C@@H](CC(=O)O)C(=O)N[C@H](CC(C)C)C(=O)N[C@@H](CC(C)C)C(=O)O1 [surfactin] (EL[dL]VD[dL]L; linker N-C via X1)
concentration at which active [1]: 25 µM

SMILES: CCO [ethanol]
cell death after exposure (CMFDA staining) (NIH 3T3 fibroblasts): insufficient to cause cell death

concentration successfully dispersed in ethanol before sedimentation of aggregates [2]: up to 100 mg/mL
SMILES: CCCCCCCCCCCCCCCC(=O)OC[C@H](COP(=O)([O-])OCC[N+](C)(C)C)OC(=O)CCCCCCCCCCCCCCC [DPPC, dipalmitoyl phosphatidyl choline]
